Experimental findings from US20230310352A1, “NOVEL COMPOSITIONS AND METHODS FOR THE TREATMENT OF LUNG FIBROSIS” (LAURENT PHARMACEUTICALS INC., priority 2020, published 2023) are described below.

The subject of assay [1] is Normal human lung fibroblast cells (NHLF cells, ATCC CRL-7000). Nature of the assay: αSMA mRNA transcript by qRT-PCR after TGF-β1 exposure in NHLF. The class given is cell-based. Particulars: TGF-β1 2 ng/mL + fenretinide 1, 2, 3, 4 μM, 3 days, 5% FBS. The protocol: Normal human lung fibroblast cells (NHLF cells, ATCC CRL-7000, EMEM media; 5% FBS) were incubated for 3 days at 37° C. and treated with TGF-β1 (2 ng/mL) or TGF-β1 (2 ng/mL)+Fenretinide (1, 2, 3, 4 μM). At the end of the 3 day-treatment period, media was removed using a vacuum pump and total ribonucleic acid (RNA) was isolated using the TriReagent protocol (BioShop) and cDNA was obtained by reverse transcription using the SUPERSCRIPT® VILO®. αSMA transcript levels were determined by quantitative real-time Polymerase Chain Reaction (qRT-PCR) using the Fast SyBR Master Mix and specific probes, and quantified following the ΔΔCT, normalized to PUM-1 expression as internal control. The experiment was performed in quadruplicate (4 wells/condition).
(In general: In qPCR the cycle at which signal appears reflects the starting amount.)

Assay [2] shares this test system. The assay is described as follows: Pro-collagen 1A1 protein by ELISA after TGF-β1 exposure in NHLF. The class given is cell-based. Particulars: TGF-β1 2 ng/mL + fenretinide 1, 2, 3, 4 μM, 3 days. The protocol: NHLF cells were incubated for 3 days at 37° C. and treated with TGF-β1 (2 ng/mL) or TGF-β1 (2 ng/mL)+Fenretinide (1, 2, 3, 4 μM). At the end of the 3 day-treatment period, media was collected in identified tubes, centrifuged at 2,000 g for 20 minutes and stored at −80° C. Cells were collected using trypsin, transferred in identified tubes and centrifuged at 1,000 g for 5 minutes. Cells were then washed twice in PBS 1X prior to be resuspended in ELISA lysis buffer. Pro-collagen 1A1 protein contents were determined using Abcam ELISA detection kit (Ab210966). Experiment performed in quadruplicate.
(In an ELISA, binding on a coated surface is turned into a signal by an enzyme label.)

Assay [3] relates to bleomycin-induced lung fibrosis. The assay is described as follows: Intratracheal bleomycin mouse model of pulmonary fibrosis (28-day model). It counts as in vivo, C57BL/6N mice. Particulars: Day 28; oral once daily Day 7 to Day 28; fenretinide 10 mg/kg (as LAU-7b SDI), pirfenidone 100 mg/kg. The text has this: Oral administration of a solid, amorphous dispersion formulation of fenretinide (LAU-7b SDI) was provided as a treatment for reduction of pulmonary fibrosis, in a mouse model of lung fibrosis induced via a single intratracheal administration of bleomycin, for 21 days. The LAU-7b SDI formulation was obtained by spray drying and contains fenretinide in amorphous form in a solid dispersion comprising a matrix polymer, based on the following formula: 40% fenretinide, 59.6% povidone (KOLLIDON® 30), 0.24% butylated hydroxyanisole (BHA) and 0.16% butylated hydroxytoluene (BHT).
Male C57BL/6N mice from Charles River Laboratories, 10-12 weeks of age, weighing around 20-25 g, at the time of their enrolment, received 50 μL of bleomycin sulfate (2.0 mg/kg) by a single intratracheal instillation on Day 1 of the study to induce lung fibrosis. The sham group received an equivalent volume of 0.9% saline. On Day 7 postbleomycin instillation, the animals were randomized in groups of animals based on their body weight loss and enhanced pause airway resistance estimate (PenH value), while the sham group had 6 mice. Oral dosing by gavage (10 mL/kg) with the vehicle (sham and BLM control groups), the test articles (fenretinide 10 mg/kg), and the reference compound (pirfenidone 100 mg/kg) were administered once daily starting from Day 7 to Day 28. Two hours following the last dose on Day 28, all mice were sacrificed, the lungs of each mouse harvested, flushed with 0.9% NaCl and inflated with 10% neutral buffered formalin solution. After embedding and mounting of the lung tissue (transversal slices of 5 μm thickness), the histology slides were stained with hematoxylin/eosin for the Ashcroft score evaluation by a treatment-blinded pathologist and with Sirius red staining for automated fibrosis quantification (Biocelvia, France).
The key endpoints evaluated in this study were Ashcroft score, pulmonary foci and collagen content obtained by histological assessment of the lung tissue at the end of the study. Statistical analysis was made on normally distributed data by one-way ANOVA followed by multiple comparisons (Fisher's LSD post hoc test) to assess the difference between the groups, using Graph Pad Prism Software version 8.0 (San Diego, CA, USA). Differences were considered statistically significant when P values were p<0.05 (*), or p<0.01 (**) or p<0.001 (***).
Ashcroft scale for the evaluation of bleomycin-induced lung fibrosis is the analysis of stained histological samples by visual assessment. The Ashcroft score was assessed in lung tissue collected on Day 28 by treatment-blinded pathologist on H&E stained lung tissue histology slides (3 cross sections/animal) and using the modified Ashcroft scale. Briefly, each lung section was scanned at a magnification of x100 (H&E staining), read by a blinded examiner, and graded from 0 (normal lung) to 8 (total fibrotic obliteration of the field). Criteria for grading lung fibrosis in Ashcroft scale are as follows: Grade 0=normal lung; Grade 1=minimal fibrous thickening of alveolar or bronchiolar walls; Grade 3=moderate thickening of walls without obvious damage to lung architecture; Grade 5=increased fibrosis with definitive damage to lung structure and formation of fibrous bands or small fibrous masses; Grade 7=severe distortion of structure and large fibrous area; Grade 8=total fibrous obliteration of lung fields. The mean value of the grades obtained for each of the three sections was used as the Ashcroft score. Ashcroft score, using the modified scale, is a reliable and reproducible method of visual quantification of bleomycin induced lung fibrosis in H&E stained histological lung sections based on description of the general morphology of alveolar septa and lung structure. […]

Structures are written as SMILES. Entries after “also recorded” stand apart in the source; their conditions may differ.

`CC1=C(/C=C/C(C)=C/C=C/C(C)=C/C(=O)Nc2ccc(O)cc2)C(C)(C)CCC1` [fenretinide, 4-hydroxyphenyl retinamide]: in assay [1], the “induction of α-SMA fibrotic marker expression (mRNA, qRT-PCR)” value is listed as “attenuates, in a dose-dependent manner; also recorded: dose-dependent attenuation”. Also, the “induction of Pro-collagen 1A1 protein levels (ELISA)” value in assay [2] was “attenuate and, at certain doses, completely abolish; also recorded: dose-dependent attenuation”. For the same compound, the “induction of Pro-collagen 1A1 protein levels (ELISA)” value in assay [2] (listed as Fenretinide) is reported as “dose-dependent attenuation”. In addition, in assay [3], the “Ashcroft score vs BLM control” value is recorded as “reduced significantly (p<0.05)”; the “percentage of collagen content in lung tissue, automated Sirius red analysis, vs BLM control” value was “significantly reduced”; the “percentage of pulmonary foci (fibrotic tissue), automated Sirius red analysis, vs BLM control” value is recorded as “significant reduction”.
